Source: patent US6084072A, “Purified lectin and methods of use” (The Regents of the University of Michigan, priority 1993, dated 2000)
Values joined by “and” are separate entries in the source; they are usually repeats but may differ in a detail not shown here. Identical values can stand only once.

Assays:
[1] = tested on: well differentiated colonic adenocarcinoma sections; assay: Inhibition of lectin binding with hapten sugars on tissue sections; design: species or system human; key to Labeling score: 4^+: Maximum labeling of the brown reaction product; 0: No staining of the slide compared to control sections; 1^+: trace or weak staining definitely not seen on control slides; 2+3^+: stronger staining, but definitely less than maximal
Procedure: (§1) Four micron paraffin embedded tissue sections attached to glass slides were deparaffinized by serial incubations in xylene (twice), absolute ethanol (thrice), 95% ethanol, 70% ethanol, water and finally equilibrated in phosphate buffered saline (PBS), pH 7.0, containing 0.1% bovine serum albumin (BSA) commercially available from Sigma Corp of St. Louis, Mo. The slides were blotted dry adjacent to the tissue sections, and biotinylated lectin was added at a concentration of 10 μg/ml (for ACA) and 20 μg/ml (for PNA) in a quantity sufficient to completely cover the hydrated tissue (100-2001 μl). The lectin was rinsed off after a 30 minute incubation by eight 2-second dips into phosphate buffered saline. The slides were again blotted, and the tissue covered with Streptavidin-horseradish peroxidase (HRP) obtained from Zymed Laboratories, San Francisco, Calif. at a concentration of 10 μg/ml for 30 minutes. The slides were rinsed as mentioned above, and the pigmented reaction product developed by the addition of a freshly prepared chromogen reagent solution prepared within two hours of use as follows.
3,3'-diaminobenzidine was aliqotted at 5 mg/mL in 0.01 M (Tris) tris hydroxy methyl amino methane saline, pH 7.5 and frozen at -70° C. until use. For use, the aliquot was thawed, diluted 1:10 in 0.01 M (Tris) tris hydroxy methyl amino methane saline pH 7.5, and 3.3 μL of 30% H2 O2 were added to each 5 ml. This solution was allowed to stand for 10 min, and 100-200 μl was applied to the tissue sections that had been incubated earlier with biotinylated lectin and Streptavidin-HRP. After 10 min, the slides were rinsed with albumin-free phosphate buffered saline. The tissues were briefly counterstained for 50 seconds with Gill's #3 hematoxylin bovine serum albumin, commercially available from Sigma Corp. of St. Louis, Mo., rinsed with water, and serially dehydrated using graded alcohols and xylene, and embedded in Permount, a trademarked, commercially available product of Allied-Fischer Scientific of Livonia, Mich.
The specificity of lectin binding was evaluated by preincubating the biotinylated lectin with inhibitory hapten sugar for 1-2 hours prior to its application to the tissue. In each instance, the reagents were prepared so that the final concentration of lectin on the slide was either 10 or 20 μg/ml and the hapten sugar was as indicated in the results. Galactose, lactose, GalNAc, and galactose-β1-3N-acetylgalactosamine-α-O-benzyl (T-antigen-α-O-benzyl) were also obtained from Sigma Corp.
The stained sections were examined with a light microscope using a 25× and 40× objective lenses and 10× eyepiece. Evaluation of lectin binding required the use of several approaches. First, the binding specificity was confirmed by coincubation of lectin with hapten sugars known to bind the lectin maximally. Maximum labeling of the brown reaction product was arbitrarily assigned a score 4^+. See Boland, C. R., Bresalier, R. S., and Roberts, J. A. "Assay of lectin binding sites in colonic cancer-associated mucins: comparison of fluorescence microscopy with a quantitative chromatographic technique." J. Histochem. Cytochem., 36: 1329-1334, 1988. No staining of the slide compared to control sections (i.e., in which lectin was omitted from the staining procedure) was assigned a score of 0. Intermediate scores of 1^+ (trace or weak staining definitely not seen on control slides) and 2+3^+ (stronger staining, but definitely less than maximal) were assigned. […] See Boland. This method was used to confirm the binding specificity to known "positive" tissues and to evaluate changes in lectin binding after neuraminidase treatment.
Specimens of well differentiated colonic cancers were incubated with biotinylated lectins. Working concentrations on the slide were 10 μg/ml for ACA and 20 μg/ml for PNA. The hapten sugars galactose (Gal), N-acetylgalactosamine (GalNAc), and Galβ1,3GalNAc-α-O-benzyl (T-antigen) were used to inhibit lectin binding to the tissues. […]

[2] = tested on: adenomatous colonic polyps; assay: Lectin histochemistry, adenomatous colonic polyps; type: binding, human; conditions: glands in adenomatous polyps; mean ± SEM; listed as ACA
From the text: Specimens of adenocarcinoma of the colon and adenomatious colonic polyps from resected specimens were obtained from the Pathology Service at the Ann Arbor Veterans Administration Medical Center. These specimens were obtained at surgery or at colonoscopic polypectomy, fixed in buffered formalin, and embedded in paraffin for routine pathological examination. Additional four micron sections were cut for lectin histochemistry after the pathological diagnosis was confirmed.
as §1, with “The slides were rinsed as mentioned above, and the pigmented reaction product developed by the addition of a freshly prepared chromogen reagent solution prepared within two hours of use as follows.” left out

[3] = tested on: human red blood cells (A, B, and O); assay: Hemagglutination; type: cell-based
Procedure: In the hemagglutination procedure, red blood cells were washed and resuspended to make a 2% suspension in phosphate buffered saline. The lectin solution was serially diluted in microliter plates followed by the addition of the 2% red blood cell suspension. Hemagglutination was observed after 1 hour at room temperature. One hemagglutination unit (HU) is defined as the minimum amount of amaranthin to completely agglutinate cells and is equivalent to a lectin concentration of 2 μg/ml.

colonic adenocarcinoma = type: binding, human; design: key to Labeling of transitional mucosa: 4^+: Maximum labeling of the brown reaction product; 0: No staining of the slide compared to control sections; 1^+: trace or weak staining definitely not seen on control slides; 2+3^+: stronger staining, but definitely less than maximal
[4] = tested on: mucin purified from the LS174T xenograft; assay: Solid phase enzyme-linked lectin-binding assay
Procedure: A solid phase enzyme-linked lectin-binding assay has been developed for ACA to quantitate lectin binding to solubilized glycoconjugates. ACA is more sensitive in the measurement of purified cancer-associated mucin than peanut lectin, and can detect as little as 1 mg of mucin purified from the LS174T xenograft.

## amaranthin
[1]
  GalNAc concentration that inhibited labeling: ≥ 250 mM
  T-antigen concentration that inhibited labeling: ≥ 100 µM
  galactose concentration required for partial inhibition of binding: 400 mM
  lactose concentration required for partial inhibition of binding: 400 mM
[1]; GalNAc 250 mM
  Labeling score: Trace
[1]; T-antigen 100 μM
  Labeling score: 0
[1]; T-antigen 200 μM
  Labeling score: 0
[1]; T-antigen 400 μM
  Labeling score: 0
[2]
  Percent of Epithelial Units Labeled: 82±7% and 82%±7% and 82 + 7%
[3]
  agglutination of A, B, O red blood cells, in words: does and No difference was observed
[3]; 2% red blood cell suspension, 1 hour at room temperature
  minimum amount to completely agglutinate cells (one HU): 2 µg/mL
Colonic adenocarcinoma; cancer specimens
  Effect of Newcastle disease virus neuraminidase on labeling: Neither sialidase enhanced labeling
  Effect of V. Cholerae neuraminidase on labeling: Neither sialidase enhanced labeling
Colonic adenocarcinoma; malignant glands, mean ± SEM, listed as ACA
  Percent of Epithelial Units Labeled: 97±2% and 97%±2%
Colonic adenocarcinoma; mucosa adjacent to colonic cancer, upper and lower crypt region
  Labeling of transitional mucosa: 1^+
[4]
  smallest amount of mucin detected: 1 mg
